Laboratory results from article PMC8317927 (Journal of Enzyme Inhibition and Medicinal Chemistry, 2021).
≈ marks a conversion by molar mass, not a printed value. Where “and” joins values, the source holds several entries; their conditions need not be identical. Equal entries are not always repeated. Where two headings read alike, the source gives them in different places.

Columns and labels:
[1] = Cell viability, XTT assay; format: cell-based; settings: human, HaCaT keratinocyte cells
Description: Human keratinocytes (HaCaT) cells were purchased from Sigma Aldrich Co. (St. Louis, MO, USA) and cultured in Dulbecco’s modified Eagle’s medium (DMEM; Life Technologies; Gaithersburg, MD, USA) with 10% fetal bovine serum (Gibico; Grand Island, NY, USA) at 37 °C in the presence of 5% CO2. The cell viability of HaCaT treated with or without OA and its derivatives was measured by the XTT assay according to manufacturer’s instructions (XTT Cell proliferation Kit II; Roche, USA). Briefly, HaCaT cells were seeded in 96-well plates at 5 × 10^3 cells per well and allowed to attach for 12 h. Then OA and its derivatives (100 µL; 10 µg/mL) were incubated with cells for 24 h, followed by adding the XTT reagent (50 µL; 0.3 mg/mL) in each well and incubated for 4 h. The absorbance of each well was measured at wavelengths of 450 nm using a SpectraMax M2 plate reader (Molecular Devices; Sunnyvale, CA, USA).

[2] = target: T1, bovine testicular HAase (Bos taurus, UniProt Q2YDK3); assay: Hyaluronidase inhibition assay; format: biochemical; settings: for inhibition at 40 µg/mL: read-out: Inhibition (%) of HAase enzyme activity; for IC50 on HAase enzyme activity: nonlinear regression of inhibition rates at five concentrations (1-40 µg/mL)
T1 sequence (Q2YDK3 36-553): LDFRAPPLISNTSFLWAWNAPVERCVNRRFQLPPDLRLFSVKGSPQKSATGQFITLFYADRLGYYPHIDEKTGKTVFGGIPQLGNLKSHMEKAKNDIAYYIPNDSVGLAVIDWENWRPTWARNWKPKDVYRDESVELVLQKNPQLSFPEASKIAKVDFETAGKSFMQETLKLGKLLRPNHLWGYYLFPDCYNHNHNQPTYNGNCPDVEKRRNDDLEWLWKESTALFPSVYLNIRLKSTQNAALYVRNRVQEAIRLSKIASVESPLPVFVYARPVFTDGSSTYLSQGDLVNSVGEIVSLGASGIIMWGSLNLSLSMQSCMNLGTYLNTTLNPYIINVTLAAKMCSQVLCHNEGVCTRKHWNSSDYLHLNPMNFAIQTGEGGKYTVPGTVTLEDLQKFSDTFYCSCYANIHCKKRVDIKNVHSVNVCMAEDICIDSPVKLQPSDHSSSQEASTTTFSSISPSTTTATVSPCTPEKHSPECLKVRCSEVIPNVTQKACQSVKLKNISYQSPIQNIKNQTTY
Description: Inhibitory effect on bovine testicular HAase activity was evaluated using a reported method with minor modifications. It is noted that long HA chains and HAase may form of non-active complexes at low ionic condition, which can impede the catalytic activity of HAase and disrupt the HAase inhibition assay. This interference can be avoided by adding a positively charged protein to balance the ionic strength of the reaction system and recover the activity of HAase[24]. […] […] Then hyaluronic acid (HA; 100 μL) was added to the pre-incubated mixture at 37 °C for 45 min. […] The absorbance was then measured at a wavelength of 600 nm using a microplate reader (SpectraMax M2, Molecular Devices Corp., operated by SoftmaxPro v.4.6 software, Sunnyvale, CA, USA). Each sample was tested at least in three replicates. […] The IC50 value of each sample was determined by analysing its inhibition rates at different concentrations with a nonlinear regression algorithm by GraphPad Prism.

[3] = system: HAase; assay: Lineweaver-Burk plot, enzyme kinetics of HAase inhibition; format: biochemical, bovine; settings: four concentrations (5–40 µg/mL); HA 0.125–2.0 µM (6c), 0.2–1.0 µM (6g)
Description: The inhibition type of test compounds was determined by the Lineweaver-Burk plots.

[4] = system: HaCaT cells; assay: Cellular reactive oxygen species (ROS), H2O2-induced, DCFDA probe; format: cell-based, human; settings: 10 µg/mL for 24 h, then H2O2 200 µM for 1 h
Description: HaCaT cells were seeded in 96-well plates at 6 × 10^3 cells per well and allowed to attach for 12 h. Then the cells were incubated with test samples (10 µg/mL) for 24 h. Next, the cell culture medium was removed and fresh phosphate buffer solution (PBS; 100 µL) containing a fluorescent probe 2′,7′-dichlorofluorescin diacetate (DCFDA; 20 µM) was added to the cells and incubated for 20 min. Then the cells were treated with H2O2 (100 µL; 200 µM) for 1 h followed by measuring the fluorescence intensity of each well with excitation and emission wavelengths of 485 and 525 nm, respectively, using a SpectraMax M2 plate reader.

Row | Inhibition (%) of HAase enzyme activity ([2]; at 40 μg/mL) | IC50 on HAase enzyme activity [2] [µg/mL] | Compound | also measured
1 | – | – | CC1(C)CC[C@]2(C(=O)O)CC[C@]3(C)C(=CC[C@@H]4[C@@]5(C)CC[C@H](O)C(C)(C)[C@@H]5CC[C@]43C)[C@@H]2C1 [Compound 1, Oleanolic acid, reference compound] | viability at 24 h, 10 µg/mL [1]: 96.7%; inhibition at 40 µg/mL [2]: 59.3 ± 2.4%
2 | – | – | CC1(C)CCC23CC[C@]4(C)C(OC2=O)(C(F)CC2[C@@]5(C)CC[C@H](O)C(C)(C)C5CC[C@]24C)C3C1 (stereo partly shown) [Compound 3] | inhibition at 40 µg/mL ([2]; at 40 μg/mL): 12.7 ± 3.9%
3 | 98.1 ± 0.4% | 9.57 (≈ 17 µM) | CC1(C)CCC2(C(=O)O)CCC3(C)C(=CCC4C5(C)Cc6c([nH]c7c(Cl)cccc67)C(C)(C)C5CCC43C)C2C1 (stereo not shown) [Compound 6g] | Inhibition type (Lineweaver-Burk plot) [3]: mixed type of competitive and non-competitive inhibitions
4 | – | – | CC1(C)CCC23CC[C@]4(C)C(OC2=O)(C(F)CC2[C@@]5(C)CCC(=O)C(C)(C)C5CC[C@]24C)C3C1 (stereo partly shown) [Compound 4] | inhibition at 40 µg/mL ([2]; at 40 μg/mL): 37.3 ± 1.4%
5 | 93.5 ± 3.9% | 11.62 (≈ 20.9 µM) | Cc1cc(C)c2[nH]c3c(c2c1)CC1(C)C(CCC2(C)C1CC=C1C4CC(C)(C)CCC4(C(=O)O)CCC12C)C3(C)C (stereo not shown) [Compound 6d] | –
6 | 100.9 ± 4.3% | 16.23 (≈ 28.3 µM) | CC1(C)CCC2(C(=O)O)CCC3(C)C(=CCC4C5(C)Cc6c([nH]c7c([N+](=O)[O-])cccc67)C(C)(C)C5CCC43C)C2C1 (stereo not shown) [Compound 6a] | –
7 | 100.6 ± 3.6% | 10.14 (≈ 16.7 µM) | CC1(C)CCC2(C(=O)O)CCC3(C)C(=CCC4C5(C)Cc6c([nH]c7c(Br)cccc67)C(C)(C)C5CCC43C)C2C1 (stereo not shown) [Compound 6f] | –
8 | 100.2% and 100.4 ± 2.4% | 12.58 (≈ 23 µM) | CC1(C)CCC2(C(=O)O)CCC3(C)C(=CCC4C5(C)Cc6c([nH]c7c(F)cccc67)C(C)(C)C5CCC43C)C2C1 (stereo not shown) [Compound 6b] | –
9 | – | – | CC1(C)CC[C@]2(C(=O)O)CC[C@]3(C)C(=CCC4[C@@]5(C)CCC(=O)C(C)(C)C5CC[C@]43C)C2C1 (stereo partly shown) [Compound 2] | inhibition at 40 µg/mL [2]: 15.9 ± 4.3%
10 | 83.7 ± 3.3% | 11.60 (≈ 19.1 µM) | CC1(C)CCC2(C(=O)O)CCC3(C)C(=CCC4C5(C)Cc6c([nH]c7ccc(Br)cc67)C(C)(C)C5CCC43C)C2C1 (stereo not shown) [Compound 6e] | –
11 | 86.3 ± 3.3% | 9.97 (≈ 17.7 µM) | CC1(C)CCC2(C(=O)O)CCC3(C)C(=CCC4C5(C)Cc6c([nH]c7c(F)cc(F)cc67)C(C)(C)C5CCC43C)C2C1 (stereo not shown) [Compound 6c] | decrease of ROS level vs H2O2-exposed cells [4]: 23.6%; Inhibition type (Lineweaver-Burk plot) [3]: mixed type of competitive and non-competitive inhibitions
